Patent publication US20020132792A1, “Aryl-substituted indirubin derivatives, their production and use” (Schering AG, priority 2000, published 2002)
pIC50: −log10 of the molar value.

What was measured:
CDK2/CycE = molecular target: T1, CDK2/CycE (Homo sapiens, UniProt P24941); experiment: CDK2/CycE kinase assay; type: biochemical; conditions: recombinant CDK2/CycE-GST, histone IIIS substrate, 0.5 μm ATP, 15 minutes at 22° C.
T1 construct: GST; purchased Dr. Dieter Marmé, Klinik für Tumorbiologie, Freiburg (obtained from an outside laboratory); host or cells: baculovirus-infected Sf9 insect cells
Experimental: Recombinant CDK2- and CycE-GST-fusion proteins, purified from baculovirus-infected insect cells (Sf9), were obtained by Dr. Dieter Marmé, Klinik für Tumorbiologie [Clinic for Tumor Biology], Freiburg. Histone IIIS, which was used as a kinase substrate, was purchased by the Sigma Company.
CDK2/CycE (50 ng/measuring point) was incubated for 15 minutes at 22° C. in the presence of various concentrations of test substances (0 μm, as well as within the range of 0.01-100 μm) in assay buffer [50 mmol of tris/HCl pH 8.0, 10 mmol of MgCl2, 0.1 mmol of Na ortho-vanadate, 1.0 mmol of dithiothreitol, 0.5 μm of adenosine triphosphate (ATP), 10 μg/measuring point of histone IIIS, 0.2 μCi/measuring point of ^33P-gamma ATP, 0.05% NP40, 12.5% dimethyl sulfoxide]. The reaction was stopped by adding EDTA solution (250 mmol, pH 8.0, 14 μl/measuring point).
From each reaction batch, 10 μl was applied to P30 filter strips (Wallac Company), and non-incorporated ^33P-ATP was removed by subjecting the filter strips to three washing cycles for 10 minutes each in 0.5% phosphoric acid. After the filter strips were dried for one hour at 70° C., the filter strips were covered with scintillator strips (MeltiLex™ A, Wallac Company) and baked for one hour at 90° C. The amount of incorporated ^33P (substrate phosphorylation) was determined by scintillation measurement in a gamma-radiation measuring device (Wallac).

MCF-7 cells = experiment: Proliferation assay (crystal violet); type: cell-based; conditions: MCF7, 96 h, MCF-7 human tumor cells, 4 days incubation
Experimental: Cultivated human tumor cells (as indicated) were flattened out at a density of 5000 cells/measuring point in a 96-well multititer plate in 200 μl of the corresponding growth medium. After 24 hours, the cells of one plate (zero-point plate) were colored with crystal violet (see below), while the medium of the other plates was replaced by fresh culture medium (200 μl), to which the test substances were added in various concentrations (0 μm, as well as in the range of 0.01-30 μm; the final concentration of the solvent dimethyl sulfoxide was 0.5%). The cells were incubated for 4 days-in the presence of test substances. The cell proliferation was determined by coloring the cells with crystal violet: the cells were fixed by adding 20 μl/measuring point of a 11% glutaric aldehyde solution for 15 minutes at room temperature. After subjecting the fixed cells to three washing cycles with water, the plates were dried at room temperature. The cells were colored by adding 100 μL/measuring point of a 0.1% crystal violet solution (pH was set at 3 by adding acetic acid). […] The extinction was determined by photometry at a wavelength of 595 nm. The change of cell growth, in percent, was calculated by standardization of the measured values to the extinction values of the zero-point plate (=0%) and the extinction of the untreated (0 μm) cells (=100%).

SMILES	pIC50 (CDK2/CycE)	melting point	pIC50 (MCF-7 cells)
COc1ccc(-c2ccc3c(c2)/C(=C2/Nc4ccccc4C2=O)C(=O)N3)cc1 [Example 1.0, 5-(4-Methoxyphenyl)-indirubin]	< 5.30	> 300 °C	
O=C1Nc2ccc(-c3ccccc3)cc2C1=C1Nc2ccccc2C1=O [Example 1.1]	6.00		
CC(C)(C)[Si](C)(C)Oc1cccc(-c2ccc3c(c2)C(=C2Nc4ccccc4C2=O)C(=O)N3)c1 [Example 1.2]	6.82		5.40
O=C1Nc2ccc(-c3cc(C(F)(F)F)cc(C(F)(F)F)c3)cc2C1=C1Nc2ccccc2C1=O [Example 1.3]	6.22		
O=C1Nc2ccc(-c3ccc(Cl)cc3)cc2C1=C1Nc2ccccc2C1=O [Example 1.4]	7.52		6.30
CC(C)(C)c1ccc(-c2ccc3c(c2)C(=C2Nc4ccccc4C2=O)C(=O)N3)cc1 [Example 1.5]	6.52		
